± gives the standard deviation of the averaged measurements.
Key:
Experiment in all cases: level (log10 ratio to DMSO vehicle control); higher = higher biomarker level / cell amount than vehicle control
[1] = compound: C=C(C)C(=O)OCCC(F)(F)C(F)(F)C(F)(F)C(F)(F)C(F)(C(F)(F)F)C(F)(F)F [(Perfluoro-5-methylhexyl)ethyl 2-methylprop-2-enoate]; settings: in DMSO
Procedure: (§1)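 BioMAP Diversity Plus panel of 12 human primary cell co-culture systems (3C, 4H, LPS, SAg, BT, BF4T, BE3C, CASM3C, HDF3CGF, KF3CT, MyoF, Mphg). Compounds were added 1 h before stimulation and left for 24 h (MyoF 48 h; BT 72 h for soluble read-outs or 6 d for IgG). Biomarkers were read by ELISA, cytotoxicity by SRB, PBMC viability and proliferation by Alamar Blue. Each well value was divided by the mean of 8 DMSO control wells on the same plate and log10 transformed; duplicate blinded samples were tested at 4 concentrations.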

[2] = compound: FC(F)(F)C(F)(C(F)(F)F)C(F)(F)C(F)(F)CC1CO1 [3-(Perfluoro-3-methylbutyl)-1,2-propenoxide]; settings: in DMSO
Procedure: as §1

[3] = compound: FC(F)(F)C(F)(F)C(F)(F)C(F)(F)C(F)(F)CCI [1-Iodo-1H,1H,2H,2H-perfluoroheptane]; settings: in DMSO
Procedure: as §1

[4] = compound: NC(=O)C(F)(F)C(F)(F)C(F)(F)F [Heptafluorobutyramide]; settings: in DMSO
Procedure: as §1

[5] = compound: O=C(O)C(F)(F)C(F)(F)C(F)(F)C(F)(F)F [Perfluoropentanoic acid]; settings: in DMSO
Procedure: as §1

[6] = compound: O=C(O)C(F)(F)C(F)(F)C(F)(F)F [Perfluorobutanoic acid]; settings: in DMSO
Procedure: as §1

[7] = compound: O=C(O)C(F)(F)C(F)(F)OC(F)(F)F [Perfluoro-3-methoxypropanoic acid]; settings: in DMSO
Procedure: as §1

[8] = compound: OCCCC(F)(F)C(F)(F)C(F)(F)C(F)(F)C(F)(F)C(F)(F)C(F)(F)F [7:3 Fluorotelomer alcohol]; settings: 6700 nM; in DMSO
Procedure: as §1

Test System | level (log10) ([1]; 6700 nM) | level (log10) ([1]; 20000 nM) | level (log10) ([2]; 6700 nM) | level (log10) ([2]; 20000 nM) | level (log10) ([3]; 6700 nM) | level (log10) ([3]; 20000 nM) | level (log10) ([3]; 60000 nM) | level (log10) ([4]; 6700 nM) | level (log10) ([4]; 20000 nM) | level (log10) ([4]; 60000 nM) | level (log10) ([5]; 6700 nM) | level (log10) ([5]; 20000 nM) | level (log10) ([5]; 60000 nM) | level (log10) ([6]; 6700 nM) | level (log10) ([6]; 20000 nM) | level (log10) ([6]; 60000 nM) | level (log10) ([7]; 6700 nM) | level (log10) ([7]; 20000 nM) | level (log10) ([7]; 60000 nM) | level (log10) [8]
SAg:Proliferation | 0.011 ± 0.0085 | 0.009 ± 0.018 | 0.028 ± 0.017 | 0.007 ± 0.12 | -0.014 ± 0.035 | -0.0145 ± 0.0064 | -0.15 ± 0.054 | -0.0035 ± 0.03 | -0.0055 ± 0.00071 | -0.0265 ± 0.011 | -0.0195 ± 0.04 | 0.0205 ± 0.046 | 0.0175 ± 0.08 | -0.04 ± 0.0099 | 0.0325 ± 0.029 | -0.0065 ± 0.039 | -0.0075 ± 0.035 | -0.015 ± 0.033 | 0.0005 ± 0.026 | -0.0205 ± 0.052
BE3C:EGFR | -0.0065 ± 0.011 | 0.009 ± 0.014 | -0.01 ± 0.013 | -0.023 ± 0.013 | 0.0195 ± 0.0078 | 0.0085 ± 0.019 | 0.009 ± 0.028 | -0.008 ± 0.0028 | -0.017 ± 0.011 | 0.004 ± 0.021 | -0.0025 ± 0.021 | -0.011 ± 0.0057 | 0.004 ± 0.018 | 0.002 ± 0.0042 | 0.005 ± 0.0099 | -0.0035 ± 0.0035 | -0.0075 ± 0.05 | 0.0065 ± 0.018 | 0.0335 ± 0.04 | 0.0115 ± 0.015
3C:CXCL8/IL-8 | 0.0105 ± 0.03 | 0.054 ± 0.086 | -0.0065 ± 0.018 | 0.008 ± 0.014 | 0.011 ± 0.0085 | 0.0065 ± 0.016 | 0.051 ± 0.017 | 0.008 ± 0.0071 | -0.0035 ± 0.016 | 0.0105 ± 0.011 | -0.0065 ± 0.0092 | -0.005 ± 0.027 | 0.03 ± 0.079 | 0.001 ± 0.028 | -0.0035 ± 0.0064 | 0.0205 ± 0.03 | -0.017 ± 0.051 | -0.0255 ± 0.021 | 0.005 ± 0.037 | 0.0075 ± 0.0035
BF4T:MMP-3 | -0.0975 ± 0.022 | -0.057 ± 0.041 | 0.0005 ± 0.018 | -0.011 ± 0.0028 | -0.006 ± 0.034 | -0.0015 ± 0.0078 | 0.0545 ± 0.021 | 0.0075 ± 0.0021 | -0.005 ± 0.02 | 0.0065 ± 0.012 | -0.015 ± 0.011 | -0.0145 ± 0.0092 | -0.0045 ± 0.04 | 0.0005 ± 0.035 | 0.0045 ± 0.015 | 0.006 ± 0.033 | -0.001 ± 0.024 | 0.0105 ± 0.0035 | 0.043 ± 0.016 | -0.013 ± 0.014
BT:Secreted IgG | -0.0085 ± 0.044 | -0.023 ± 0.0085 | -0.007 ± 0.064 | 0.016 ± 0.09 | -0.006 ± 0.016 | -0.002 ± 0.062 | -0.0185 ± 0.08 | 0.034 ± 0.0085 | -0.005 ± 0.031 | 0.0285 ± 0.025 | -0.0065 ± 0.016 | 0.0145 ± 0.0035 | -0.009 ± 0.059 | 0.017 ± 0.0028 | -0.02 ± 0.035 | 0.0055 ± 0.022 | -0.0085 ± 0.0021 | 0.01 ± 0.018 | 0.0155 ± 0.0035 | -0.0105 ± 0.028
BF4T:CD54/ICAM-1 | -0.0065 ± 0.015 | -0.017 ± 0.0099 | 0.0005 ± 0.018 | -0.011 ± 0.021 | -0.003 ± 0.0014 | -0.0215 ± 0.019 | -0.015 ± 0.0099 | -0.0065 ± 0.011 | -0.013 ± 0.0042 | 0.0015 ± 0.015 | -0.0155 ± 0.0021 | -0.0135 ± 0.005 | 0.0015 ± 0.043 | 0.007 ± 0.0057 | -0.002 ± 0.0071 | -0.002 ± 0.018 | 0.0165 ± 0.0064 | -0.0085 ± 0.011 | -0.0015 ± 0.0035 | -0.0065 ± 0.022
BF4T:MMP-1 | -0.0205 ± 0.0021 | -0.0095 ± 0.0021 | -0.0115 ± 0.047 | 0.02 ± 0.067 | -0.001 ± 0.0057 | -0.0015 ± 0.00071 | 0.008 ± 0.013 | 0.0065 ± 0.025 | 0.003 ± 0.031 | 0.003 ± 0.0071 | 0 ± 0.014 | -0.005 ± 0.0057 | 0.0085 ± 0.0092 | 0.0045 ± 0.022 | -0.01 ± 0.017 | 0.0075 ± 0.015 | 0.0025 ± 0.0021 | 0.008 ± 0.0042 | 0.0205 ± 0.023 | 0.0005 ± 0.018
BT:sIL-2 | -0.0185 ± 0.025 | -0.0245 ± 0.039 | -0.0405 ± 0.042 | 0.071 ± 0.072 | -0.068 ± 0.0042 | 0.027 ± 0.047 | -0.15 ± 0.073 | 0.068 ± 0.017 | -0.041 ± 0.059 | 0.0165 ± 0.0092 | -0.0115 ± 0.17 | 0.0385 ± 0.00071 | 0.0385 ± 0.0078 | -0.011 ± 0.0028 | 0.0285 ± 0.066 | 0.0095 ± 0.042 | -0.002 ± 0.13 | -0.0015 ± 0.032 | 0.016 ± 0.0042 | -0.037 ± 0.15
BT:sIL-17A | -0.19 ± 0.31 | -0.015 ± 0.15 | 0.135 ± 0.0092 | -0.0585 ± 0.032 | -0.269 ± 0.12 | 0.037 ± 0.15 | -0.22 ± 0.067 | -0.0055 ± 0.22 | -0.177 ± 0.22 | 0.058 ± 0.082 | 0.0585 ± 0.042 | -0.0535 ± 0.0078 | 0.055 ± 0.13 | 0.0335 ± 0.018 | -0.0265 ± 0.025 | -0.019 ± 0.021 | 0.035 ± 0.27 | -0.0495 ± 0.076 | 0.0575 ± 0.12 | -0.0585 ± 0.17
LPS:CD69 | -0.019 ± 0.069 | -0.0145 ± 0.08 | -0.023 ± 0.027 | -0.004 ± 0.0057 | -0.015 ± 0.0071 | -0.015 | -0.019 ± 0.0057 | 0.028 ± 0.076 | -0.0065 ± 0.056 | -0.009 ± 0.069 | 0.007 ± 0.011 | -0.0305 ± 0.013 | -0.0135 ± 0.083 | -0.0005 ± 0.081 | 0.0145 ± 0.088 | 0.002 ± 0.075 | -0.0065 ± 0.013 | -0.02 ± 0.013 | 0.013 ± 0.025 | -0.007 ± 0.0014
BF4T:tPA | -0.002 ± 0.0057 | -0.037 ± 0.031 | 0.0135 ± 0.00071 | 0.0135 ± 0.0021 | -0.0055 ± 0.012 | -0.003 ± 0.011 | 0.0065 ± 0.012 | -0.0065 ± 0.013 | 0.0015 ± 0.005 | 0.0135 ± 0.018 | -0.0295 ± 0.005 | -0.0215 ± 0.029 | -0.009 ± 0.061 | 0.0025 ± 0.005 | 0.0105 ± 0.011 | 0.011 ± 0.013 | 0.0015 ± 0.037 | 0.0035 ± 0.018 | 0.019 ± 0.04 | 0.0105 ± 0.015
BF4T:CXCL8/IL-8 | 0.067 ± 0.037 | 0.035 ± 0.027 | 0.0045 ± 0.015 | 0.014 ± 0.03 | 0.0065 ± 0.016 | 0.0295 ± 0.018 | 0.0605 ± 0.011 | 0.032 ± 0.061 | 0.024 ± 0.057 | 0.0155 ± 0.012 | -0.0345 ± 0.013 | -0.0295 ± 0.013 | -0.0105 ± 0.035 | 0.0005 ± 0.012 | 0.004 ± 0.0014 | 0.0095 ± 0.033 | -0.004 ± 0.025 | -0.0225 ± 0.042 | 0.001 ± 0.068 | 0.0165 ± 0.029
4H:CCL2/MCP-1 | -0.0135 ± 0.011 | 0.002 ± 0.0042 | -0.038 ± 0.013 | 0.001 ± 0.042 | 0.005 | -0.0045 ± 0.029 | 0.0325 ± 0.035 | -0.026 ± 0.013 | -0.0325 ± 0.022 | 0.004 ± 0.095 | -0.0085 ± 0.052 | -0.047 ± 0.0042 | 0.014 ± 0.052 | -0.0185 ± 0.012 | -0.05 ± 0.028 | 0.0005 ± 0.079 | -0.0045 ± 0.039 | -0.0095 ± 0.0092 | 0.003 | 0.025 ± 0.0099
